US20250314644A1, “METHODS COMPRISING DETECTION OF ADP-HEPTOSE” (CHILDREN'S HOSPITAL MEDICAL CENTER, priority 2023, published 2025)

Tests used:
Dnmt3a^KO cells = assay: RNA-sequencing of HSPCs treated in vitro with ADP-heptose or H2O for 90 minutes; type: cell-based, mouse
[1] = tested on: Dnmt3a^−/− HSCs relative to WT HSCs; assay: In vitro HSC competition assay; type: cell-based, mouse; conditions: co-culture, ADP-heptose for 14 days
Excerpt: The polyvinyl alcohol-based in vitro HSC expansion protocol was adapted as previously described. (Wilkinson, A. C., et al. Long-term ex vivo haematopoietic-stem-cell expansion allows nonconditioned transplantation. Nature 571, 117-121 (2019) and Wilkinson, A. C., Ishida, R., Nakauchi, H. & Yamazaki, S. Long-term ex vivo expansion of mouse hematopoietic stem cells. Nat Protoc 15, 628-648 (2020).) 50 HSCs from WT-GFP (C57BL/6-Tg(UBC-GFP)30Scha/J, Cat no. 004353, Jackson Labs) and 50 HSCs from Dnmt3a^−/− mice were sorted directly into each well of a fibronectin-coated 96-well plate (Cat no. 08-774-60, Fisher Scientific) with Ham's F12 nutrient mix media (Cat no. 11765054, Thermo Fisher Scientific) containing final concentrations of 1× penicillin-streptomycin-glutamine (Cat no. 10378-016, Thermo Fisher Scientific), 10 mM HEPES (Cat no. 15630080, Thermo Fisher Scientific), 1× insulin-transferrin-selenium-ethanolamine (ITS-X, Cat no. 51500056, Thermo Fisher Scientific), 100 ng/mL recombinant murine TPO (Cat no. […] After 14 days of ADP-heptose treatment, cells were harvested, counted by trypan blue exclusion assay, and analyzed by flow cytometry. To enumerate cells, a defined number of CountBright Absolute Counting Beads (Thermo Fisher Scientific, Cat no. C36950) were added to each sample and cell count was back calculated to the proportion of the total that were run through the cytometer.

Q: How did the “gene expression changes (global transcriptomic analysis)” value (Dnmt3a^KO cells; Dnmt3a^−/− compared to WT LSKs) turn out when `Nc1ncnc2c1ncn2[C@@H]1O[C@H](COP(=O)(O)OP(=O)(O)O[C@@H]2O[C@H]([C@H](O)CO)[C@@H](O)[C@H](O)[C@@H]2O)[C@@H](O)[C@H]1O` [ADP-heptose, ADP-D-glycero-β-D-manno-heptose] was run?
A: significant gene expression changes

Q: What about the logFC (Dnmt3a^KO cells; gene 2610037D02Rik, Dnmt3a^KO cells) of the same molecule?
A: −0.596

Q: And the logFC (Dnmt3a^KO cells; gene 5031425F14Rik, Dnmt3a^KO cells)?
A: 0.6597

Q: And the logFC (Dnmt3a^KO cells; gene 6330549D23Rik, Dnmt3a^KO cells)?
A: 0.6997

Q: And the logFC (Dnmt3a^KO cells; gene A130077B15Rik, Dnmt3a^KO cells)?
A: −0.592

Q: What about the logFC (Dnmt3a^KO cells; gene AF251705, Dnmt3a^KO cells) of the same molecule?
A: 0.6212

Q: What about the logFC (Dnmt3a^KO cells; gene Adm, Dnmt3a^KO cells) of the same molecule?
A: 1.598

Q: And the logFC (Dnmt3a^KO cells; gene Afp, Dnmt3a^KO cells)?
A: 0.7049

Q: And the logFC (Dnmt3a^KO cells; gene Ahrr, Dnmt3a^KO cells)?
A: 1.585

Q: What about the logFC (Dnmt3a^KO cells; gene Angptl2, Dnmt3a^KO cells) of the same molecule?
A: 0.6418

Q: And the logFC (Dnmt3a^KO cells; gene Avil, Dnmt3a^KO cells)?
A: 1.557

Q: What about the logFC (Dnmt3a^KO cells; gene Baiap2, Dnmt3a^KO cells) of the same molecule?
A: 0.7135

Q: And the logFC (Dnmt3a^KO cells; gene Baiap2l1, Dnmt3a^KO cells)?
A: 0.6616

Q: And the logFC (Dnmt3a^KO cells; gene C1qb, Dnmt3a^KO cells)?
A: 0.6904

Q: What about the logFC (Dnmt3a^KO cells; gene C1qc, Dnmt3a^KO cells) of the same molecule?
A: 0.6327

Q: And the logFC (Dnmt3a^KO cells; gene Carns1, Dnmt3a^KO cells)?
A: 0.6216

Q: What about the logFC (Dnmt3a^KO cells; gene Ccl2, Dnmt3a^KO cells) of the same molecule?
A: 0.6432

Q: What about the logFC (Dnmt3a^KO cells; gene Ccl24, Dnmt3a^KO cells) of the same molecule?
A: 1.576

Q: And the logFC (Dnmt3a^KO cells; gene Cd28, Dnmt3a^KO cells)?
A: 0.6845

Q: And the logFC (Dnmt3a^KO cells; gene Cd40, Dnmt3a^KO cells)?
A: 0.6974

Q: And the logFC (Dnmt3a^KO cells; gene Cd74, Dnmt3a^KO cells)?
A: 0.6203

Q: What about the logFC (Dnmt3a^KO cells; gene Ces1d, Dnmt3a^KO cells) of the same molecule?
A: 0.5862

Q: And the logFC (Dnmt3a^KO cells; gene Chst10, Dnmt3a^KO cells)?
A: 0.609

Q: And the logFC (Dnmt3a^KO cells; gene Ciita, Dnmt3a^KO cells)?
A: 0.6462

Q: And the logFC (Dnmt3a^KO cells; gene Clec10a, Dnmt3a^KO cells)?
A: 0.615

Q: What about the logFC (Dnmt3a^KO cells; gene Col1a1, Dnmt3a^KO cells) of the same molecule?
A: 0.5944

Q: And the logFC (Dnmt3a^KO cells; gene Col15a1, Dnmt3a^KO cells)?
A: 0.6093

Q: What about the logFC (Dnmt3a^KO cells; gene Cxcl3, Dnmt3a^KO cells) of the same molecule?
A: 0.6695

Q: And the logFC (Dnmt3a^KO cells; gene Cxcr2, Dnmt3a^KO cells)?
A: −0.587

Q: And the logFC (Dnmt3a^KO cells; gene Dcstamp, Dnmt3a^KO cells)?
A: 0.7137

Q: And the logFC (Dnmt3a^KO cells; gene Dnah6, Dnmt3a^KO cells)?
A: 0.6061

Q: What about the logFC (Dnmt3a^KO cells; gene Dqx1, Dnmt3a^KO cells) of the same molecule?
A: 0.6377

Q: What about the logFC (Dnmt3a^KO cells; gene Emp1, Dnmt3a^KO cells) of the same molecule?
A: 0.6342

Q: And the logFC (Dnmt3a^KO cells; gene Etohi1, Dnmt3a^KO cells)?
A: −0.586

Q: What about the logFC (Dnmt3a^KO cells; gene Fam167a, Dnmt3a^KO cells) of the same molecule?
A: 0.6175

Q: And the logFC (Dnmt3a^KO cells; gene Fblim1, Dnmt3a^KO cells)?
A: 0.5971

Q: And the logFC (Dnmt3a^KO cells; gene Flrt2, Dnmt3a^KO cells)?
A: 0.7192

Q: And the logFC (Dnmt3a^KO cells; gene Gm8369, Dnmt3a^KO cells)?
A: −0.599

Q: What about the logFC (Dnmt3a^KO cells; gene Gm17455, Dnmt3a^KO cells) of the same molecule?
A: 0.7125

Q: And the logFC (Dnmt3a^KO cells; gene Grap, Dnmt3a^KO cells)?
A: 0.6793

Q: What about the logFC (Dnmt3a^KO cells; gene Grm1, Dnmt3a^KO cells) of the same molecule?
A: 1.762

Q: What about the logFC (Dnmt3a^KO cells; gene Gzmb, Dnmt3a^KO cells) of the same molecule?
A: 0.674

Q: And the logFC (Dnmt3a^KO cells; gene Gzmc, Dnmt3a^KO cells)?
A: 1.782

Q: What about the logFC (Dnmt3a^KO cells; gene H2-DMb2, Dnmt3a^KO cells) of the same molecule?
A: 0.6529

Q: And the logFC (Dnmt3a^KO cells; gene H2-Eb1, Dnmt3a^KO cells)?
A: 0.5954

Q: What about the logFC (Dnmt3a^KO cells; gene H2-Eb2, Dnmt3a^KO cells) of the same molecule?
A: 0.6221

Q: What about the logFC (Dnmt3a^KO cells; gene H2-K2, Dnmt3a^KO cells) of the same molecule?
A: 0.6688

Q: What about the logFC (Dnmt3a^KO cells; gene Hic1, Dnmt3a^KO cells) of the same molecule?
A: 1.783

Q: And the logFC (Dnmt3a^KO cells; gene Hist1h2ag, Dnmt3a^KO cells)?
A: 0.6273

Q: What about the logFC (Dnmt3a^KO cells; gene Hist1h2bc, Dnmt3a^KO cells) of the same molecule?
A: 0.6716

Q: What about the logFC (Dnmt3a^KO cells; gene Hist1h2be, Dnmt3a^KO cells) of the same molecule?
A: 0.6244

Q: What about the logFC (Dnmt3a^KO cells; gene Hist1h2bf, Dnmt3a^KO cells) of the same molecule?
A: 0.6891

Q: What about the logFC (Dnmt3a^KO cells; gene Hist1h2bj, Dnmt3a^KO cells) of the same molecule?
A: 0.665

Q: And the logFC (Dnmt3a^KO cells; gene Hist1h4d, Dnmt3a^KO cells)?
A: 0.592

Q: And the logFC (Dnmt3a^KO cells; gene Hyal1, Dnmt3a^KO cells)?
A: 0.599

Q: What about the logFC (Dnmt3a^KO cells; gene Igf2bp2, Dnmt3a^KO cells) of the same molecule?
A: 0.6643

Q: And the logFC (Dnmt3a^KO cells; gene Il12rb1, Dnmt3a^KO cells)?
A: 0.6261

Q: What about the logFC (Dnmt3a^KO cells; gene Iqcg, Dnmt3a^KO cells) of the same molecule?
A: 0.6826

Q: And the logFC (Dnmt3a^KO cells; gene Itgb7, Dnmt3a^KO cells)?
A: 0.6248

Q: And the logFC (Dnmt3a^KO cells; gene Lars2, Dnmt3a^KO cells)?
A: 0.6326

Q: What about the logFC (Dnmt3a^KO cells; gene Lif, Dnmt3a^KO cells) of the same molecule?
A: 0.6432

Q: What about the logFC (Dnmt3a^KO cells; gene Loxl3, Dnmt3a^KO cells) of the same molecule?
A: 0.5934

Q: And the logFC (Dnmt3a^KO cells; gene Lrrc51, Dnmt3a^KO cells)?
A: 0.669

Q: What about the logFC (Dnmt3a^KO cells; gene Map3k15, Dnmt3a^KO cells) of the same molecule?
A: 0.7124

Q: What about the logFC (Dnmt3a^KO cells; gene Matk, Dnmt3a^KO cells) of the same molecule?
A: 0.5934

Q: And the logFC (Dnmt3a^KO cells; gene Mir6236, Dnmt3a^KO cells)?
A: 0.6256

Q: And the logFC (Dnmt3a^KO cells; gene Mmp12, Dnmt3a^KO cells)?
A: 0.7097

Q: What about the logFC (Dnmt3a^KO cells; gene Mrc1, Dnmt3a^KO cells) of the same molecule?
A: 0.7023

Q: What about the logFC (Dnmt3a^KO cells; gene N4bp3, Dnmt3a^KO cells) of the same molecule?
A: 0.6853

Q: What about the logFC (Dnmt3a^KO cells; gene Nqo1, Dnmt3a^KO cells) of the same molecule?
A: 0.7094

Q: And the logFC (Dnmt3a^KO cells; gene Orm1, Dnmt3a^KO cells)?
A: −0.598

Q: What about the logFC (Dnmt3a^KO cells; gene P2rx3, Dnmt3a^KO cells) of the same molecule?
A: 0.7048

Q: And the logFC (Dnmt3a^KO cells; gene Pcbp3, Dnmt3a^KO cells)?
A: 0.6997

Q: And the logFC (Dnmt3a^KO cells; gene Pf4, Dnmt3a^KO cells)?
A: 0.7165

Q: What about the logFC (Dnmt3a^KO cells; gene Phf1, Dnmt3a^KO cells) of the same molecule?
A: 0.595

Q: What about the logFC (Dnmt3a^KO cells; gene Plekhn1, Dnmt3a^KO cells) of the same molecule?
A: 0.6207

Q: What about the logFC (Dnmt3a^KO cells; gene Ppp1r3d, Dnmt3a^KO cells) of the same molecule?
A: −0.595

Q: And the logFC (Dnmt3a^KO cells; gene Procr, Dnmt3a^KO cells)?
A: −0.595

Q: And the logFC (Dnmt3a^KO cells; gene Ptgs1, Dnmt3a^KO cells)?
A: 0.6215

Q: And the logFC (Dnmt3a^KO cells; gene Ptprn, Dnmt3a^KO cells)?
A: 0.5867

Q: And the logFC (Dnmt3a^KO cells; gene Pvrl1, Dnmt3a^KO cells)?
A: 0.663

Q: What about the logFC (Dnmt3a^KO cells; gene Rap1gap, Dnmt3a^KO cells) of the same molecule?
A: 0.6406

Q: What about the logFC (Dnmt3a^KO cells; gene Retnlg, Dnmt3a^KO cells) of the same molecule?
A: 0.6829

Q: What about the logFC (Dnmt3a^KO cells; gene Rn45s, Dnmt3a^KO cells) of the same molecule?
A: 0.6912

Q: What about the logFC (Dnmt3a^KO cells; gene Rptoros, Dnmt3a^KO cells) of the same molecule?
A: 0.6692

Q: What about the logFC (Dnmt3a^KO cells; gene Scn3a, Dnmt3a^KO cells) of the same molecule?
A: 1.51

Q: And the logFC (Dnmt3a^KO cells; gene Serpinb2, Dnmt3a^KO cells)?
A: 0.6945

Q: And the logFC (Dnmt3a^KO cells; gene Slc36a2, Dnmt3a^KO cells)?
A: 0.7191

Q: And the logFC (Dnmt3a^KO cells; gene Spag1, Dnmt3a^KO cells)?
A: −0.587

Q: And the logFC (Dnmt3a^KO cells; gene Spry1, Dnmt3a^KO cells)?
A: −0.595

Q: And the logFC (Dnmt3a^KO cells; gene Srp54b, Dnmt3a^KO cells)?
A: 1.636

Q: What about the logFC (Dnmt3a^KO cells; gene Stfa2l1, Dnmt3a^KO cells) of the same molecule?
A: −0.599

Q: And the logFC (Dnmt3a^KO cells; gene Tdrkh, Dnmt3a^KO cells)?
A: 0.5973

Q: And the logFC (Dnmt3a^KO cells; gene Tesc, Dnmt3a^KO cells)?
A: 0.607

Q: What about the logFC (Dnmt3a^KO cells; gene Tjp3, Dnmt3a^KO cells) of the same molecule?
A: 0.5969

Q: What about the logFC (Dnmt3a^KO cells; gene Tlr5, Dnmt3a^KO cells) of the same molecule?
A: 0.5879

Q: What about the logFC (Dnmt3a^KO cells; gene Tpmt, Dnmt3a^KO cells) of the same molecule?
A: −0.598

Q: What about the logFC (Dnmt3a^KO cells; gene Trem2, Dnmt3a^KO cells) of the same molecule?
A: 0.6257

Q: What about the logFC (Dnmt3a^KO cells; gene Trib3, Dnmt3a^KO cells) of the same molecule?
A: 0.677

Q: And the logFC (Dnmt3a^KO cells; gene Zfp184, Dnmt3a^KO cells)?
A: −0.594

Q: What about the logFC (Dnmt3a^KO cells; gene Zfp784, Dnmt3a^KO cells) of the same molecule?
A: 0.6147

Q: What about the “in vitro competition of Dnmt3a^−/− HSCs relative to WT HSCs” value [1] of the same molecule?
A: competitive advantage
